Assay results reported in ChEMBL document CHEMBL3886852, “Triazolo compounds as PDE10 inhibitors” (2016).

Target: cAMP and cAMP-inhibited cGMP 3',5'-cyclic phosphodiesterase 10A (Homo sapiens, UniProt Q9Y233)
Test: Scintillation Proximity Assay: The human PDE10A full length assay was performed in 96-well micro titer plates. The reaction mixture of 50 μl contained 20 mM HEPES pH=7.5/10 mM MgCl2/0.05 mg/ml BSA (Sigma cat. # A-7906), 50 nM cGMP (Sigma, cat. # G6129) and 50 nM [3H]-cGMP (GE Healthcare, cat. # TRK392 S.A. 13.2 Ci/mmol), 3.75 ng/well PDE10A enzyme (Enzo Life Science, Lausen, Switzerland cat # SE-534) with or without a specific test compound. A range of concentrations of the potential inhibitor was used to generate data for calculating the concentration of inhibitor resulting in 50% of the effect (e.g. IC50, the concentration of the competitor inhibiting PDE10A activity by 50%). Non-specific activity was tested without the enzyme. The reaction was initiated by the addition of the substrate solution (cGMP and [3H]-cGMP) and allowed to progress for 20 minutes at room temperature. The reaction was terminated by adding 25 μl of YSi-SPA scintillation beads (GE Healthcare, cat. # RPNQ0150) in 18 mM zinc sulphate solution (stop reagent). After 1 h under shaking, the plate was centrifuged one minute at 170 g to allow beads to settle. Afterwards, radioactive counts were measured on a Perkin Elmer Top-Count Scintillation plate reader.

cAMP and cAMP-inhibited cGMP 3',5'-cyclic phosphodiesterase 10A, sequence (Q9Y233 whole entry): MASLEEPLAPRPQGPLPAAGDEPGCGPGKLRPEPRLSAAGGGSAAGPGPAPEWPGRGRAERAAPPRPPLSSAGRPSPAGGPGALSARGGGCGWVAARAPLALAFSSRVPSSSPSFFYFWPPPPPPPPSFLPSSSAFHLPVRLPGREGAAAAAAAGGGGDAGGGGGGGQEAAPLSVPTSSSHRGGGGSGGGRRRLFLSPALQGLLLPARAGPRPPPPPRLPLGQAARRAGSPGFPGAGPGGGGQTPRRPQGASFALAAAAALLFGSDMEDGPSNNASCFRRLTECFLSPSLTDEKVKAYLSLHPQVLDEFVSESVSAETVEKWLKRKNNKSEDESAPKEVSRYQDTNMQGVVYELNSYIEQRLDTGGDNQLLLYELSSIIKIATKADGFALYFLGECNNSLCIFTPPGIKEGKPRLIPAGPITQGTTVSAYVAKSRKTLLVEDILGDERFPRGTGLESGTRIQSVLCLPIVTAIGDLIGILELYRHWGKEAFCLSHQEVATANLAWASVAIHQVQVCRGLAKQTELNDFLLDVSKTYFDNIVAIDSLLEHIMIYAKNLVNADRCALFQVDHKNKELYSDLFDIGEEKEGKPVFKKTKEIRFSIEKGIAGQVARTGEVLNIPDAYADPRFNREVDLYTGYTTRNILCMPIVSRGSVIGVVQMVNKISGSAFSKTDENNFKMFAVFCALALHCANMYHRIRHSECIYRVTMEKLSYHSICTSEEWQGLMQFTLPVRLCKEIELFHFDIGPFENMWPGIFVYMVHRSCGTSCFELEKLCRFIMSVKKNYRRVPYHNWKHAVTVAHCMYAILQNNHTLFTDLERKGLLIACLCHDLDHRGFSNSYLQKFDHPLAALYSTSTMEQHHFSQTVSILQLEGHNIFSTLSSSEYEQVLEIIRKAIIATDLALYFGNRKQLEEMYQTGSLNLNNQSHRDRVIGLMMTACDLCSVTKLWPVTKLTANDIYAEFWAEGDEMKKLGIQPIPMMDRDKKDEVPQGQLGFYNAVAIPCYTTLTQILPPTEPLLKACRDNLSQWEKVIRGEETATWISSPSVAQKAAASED

IC50	SMILES
3.47 nM	Cc1c(C#N)ccc2nc(CCc3nc(N4CCCC4)nn3C)nn12
2.68 nM	Cc1ncc(C)n2nc(CCc3nc(N4CCCC4)n(C)n3)nc12
334 nM	Cc1ncc(C)n2nc(CCc3nc(N(C)C)nn3C)nc12
36.5 nM	Cn1nc(N2CCCC2)nc1CCc1nc2c(Br)cc(C(F)(F)F)cn2n1
4.49 nM	Cc1ccn2nc(CCc3nc(N4CCCC4)nn3C)nc2c1C
